Data published in paper PMC10247784, “Physiological activation of human and mouse bitter taste receptors by bile acids” (Communications Biology, 2023).
“And” between values parts separate entries of the source, which are not always exact repeats. Equal entries are not always repeated.

Legend:
[1] = target: T1, human TAS2R46 (Homo sapiens, UniProt P59540); assay: Calcium imaging assay (FLIPR), HEK293T-Gα16gust44 cells transfected with human TAS2R46; type: cell-based; settings: for Efficacy (signal amplitude) versus control stimulus, TAS2R46: highest applied concentrations, control 10 µM strychnine
T1 construct: expressed in transfected cells; host or cells: HEK293T-Gα16gust44
T1 sequence (P59540 1-309): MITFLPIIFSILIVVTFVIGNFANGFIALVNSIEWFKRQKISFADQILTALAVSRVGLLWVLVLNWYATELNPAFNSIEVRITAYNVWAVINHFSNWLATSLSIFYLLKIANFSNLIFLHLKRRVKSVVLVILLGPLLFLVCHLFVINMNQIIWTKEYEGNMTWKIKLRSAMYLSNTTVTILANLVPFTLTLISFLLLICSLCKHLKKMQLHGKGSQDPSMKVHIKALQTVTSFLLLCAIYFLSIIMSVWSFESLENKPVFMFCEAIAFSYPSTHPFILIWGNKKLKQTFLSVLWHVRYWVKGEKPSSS
Method: (§1) This set of bile acids was chosen because of their commercial availability in high purities, their diversity within the class of bile acids and their previous detection and quantitation in human blood. Stock solutions were prepared in DMSO.
(§2) As basal growth medium for the HEK293T-Gα16gust44 cell line[17],[59] served Dulbecco’s modified eagle medium (DMEM) (Thermo Fisher Scientific, Darmstadt, Germany) supplemented with 10 % fetal bovine serum (Sigma-Aldrich, Steinheim, Germany), 2 mM L-glutamine (Sigma-Aldrich, Steinheim, Germany), 100 units/ml penicillin (Sigma Aldrich, Steinheim, Germany) and 100 µg/ml streptomycin (Sigma Aldrich, Steinheim, Germany). Growth conditions were 37 °C, 5 % CO2 and saturated air-humidity[60].
(§3) HEK293T-Gα16gust44 cells were seeded on poly-D-lysine (10 µg/ml) coated 96-well plates to reach a confluence of 40-60 % the next day. For transient transfection 150 ng of plasmid DNA containing the receptor of interest and 0.3 µl lipofectamine 2000 (Thermo Fisher Scientific, Darmstadt, Germany) per well were used and transfection took place according to the manual of lipofectamine 2000. […] The empty vector DNA (mock) was transfected as negative control[14],[41].
(§4) Cells were loaded using the calcium-sensitive fluorescent dye Fluo-4-AM (Abcam, Cambridge, Great Britain) in the presence of 2.5 mM probenecid (Sigma-Aldrich, Steinheim, Germany) the day after transfection[13],[41]. 1 h after loading, cells were washed with C1 buffer using a BioTek Cell Washer, incubated in the dark for half an hour and washed again. For automated agonist application and measurement of fluorescence changes, a FLIPR^TETRA device (Molecular Devices, San José, United States) was used. Viability of cells was tested by application of 100 nM Somatostatin 14 (Bachem, Bubendorf, Switzerland)[42].
(§5) Measured data were negative control corrected by subtracting the signal of the mock-transfected cells and exported to Microsoft Excel using the FLIPR software ScreenWorks 4.2. In Microsoft Excel software, standardization of maximum fluorescence intensities to the basal fluorescence and normalization to the buffer-only control was done to calculate the relative fluorescence changes (ΔF/F).
(§6) Initial screening experiments performed in duplicate wells were confirmed by at least one replication and representative traces were selected for display. All dose-response relationships were determined by three independent experiments (biological replicates) performed in duplicates (technical replicates). Threshold concentrations, defined as lowest substance concentrations leading to statistically significant elevated fluorescence changes in receptor-transfected cells compared with empty vector-transfected cells, were determined using SigmaPlot with Student’s t-test to evaluate statistical significance (p < 0.01).

[2] = test system: HEK293T-Gα16gust44 cells transfected with empty vector (mock); assay: Calcium imaging assay (FLIPR), empty vector control (mock); type: cell-based
Method: as §1, §2, §3, §4, §5, §6

[3] = Mock, sheet TAS2R4, conc. 0,01 mM
[4] = Mock, sheet TAS2R4, conc. 0,03 mM
[5] = Mock, sheet TAS2R4, conc. 0,00003 mM
[6] = Mock, sheet TAS2R4, conc. 0,0001 mM
[7] = Mock, sheet TAS2R4, conc. 0,0003 mM
[8] = Mock, sheet TAS2R4, conc. 0,001 mM
[9] = conc. 0,01 mM, Mock (sheet TAS2R1)
[10] = conc. 0,03 mM, Mock (sheet TAS2R1)
[11] = conc. 0,0001 mM, Mock (sheet TAS2R1)
[12] = conc. 0,0003 mM, Mock (sheet TAS2R1)
[13] = conc. 0,001 mM, Mock (sheet TAS2R1)
[14] = conc. 0,003 mM, Mock (sheet TAS2R1)

C[C@H](CCC(=O)NCCS(=O)(=O)O)[C@H]1CC[C@H]2[C@@H]3CC[C@@H]4C[C@H](O)CC[C@]4(C)[C@H]3CC[C@]12C [Taurolithocholic Acid, taurolithocholic acid]
Efficacy = maximal amplitude (ΔF/F) ([1]; TAS2R46, bile acids, mean): 0.2226
Efficacy (maximal amplitude ΔF/F), individual data points ([1]; TAS2R46, bile acids, single replicates, listed as TLCA): 0.2236 and 0.2143 and 0.2299
Efficacy (signal amplitude) versus control stimulus, TAS2R46 [1]: about equal to that obtained for strychnine
Efficacy (signal amplitude) versus control stimulus, TAS2R46 ([1]; listed as TCLA): full agonist
Efficacy (signal amplitude) versus control stimulus, TAS2R46 ([1]; listed as TLCA): significantly higher than that of TCA and GCA and comparable to the control stimulus strychnine
Activation threshold concentration TAS2R46 ([1]; lowest concentration with significantly increased fluorescence vs empty vector (p < 0.01)): 0.3 µM
Δ F/F ([2]; Mock (sheet Tas2r144), conc. 0,01 mM): 0.0005692
Δ F/F ([2]; Mock (sheet Tas2r144), conc. 0,1 mM): 0.004595
Δ F/F ([2]; Mock (sheet Tas2r144), conc. 0,03 mM): 0.0003601
Δ F/F ([2]; Mock (sheet Tas2r144), conc. 0,00003 mM): 0.006114
Δ F/F ([2]; Mock (sheet Tas2r144), conc. 0,0001 mM): 0.006504
Δ F/F ([2]; Mock (sheet Tas2r144), conc. 0,0003 mM): 0.0008548
Δ F/F ([2]; Mock (sheet Tas2r144), conc. 0,001 mM): 0.004624
Δ F/F ([2]; Mock (sheet Tas2r144), conc. 0,003 mM): 0.001997
Δ F/F [2, 3]: -0.008514
Δ F/F ([2]; Mock, sheet TAS2R4, conc. 0,1 mM): -0.00794
Δ F/F [2, 4]: -0.01099
Δ F/F ([2]; Mock, sheet TAS2R4, conc. 0,000001 mM): -0.003137
Δ F/F ([2]; Mock, sheet TAS2R4, conc. 0,000003 mM): -0.007155
Δ F/F ([2]; Mock, sheet TAS2R4, conc. 0,00001 mM): -0.00504
Δ F/F [2, 5]: -0.003977
Δ F/F [2, 6]: -0.003234
Δ F/F [2, 7]: -0.004056
Δ F/F [2, 8]: -0.007019
Δ F/F ([2]; Mock, sheet TAS2R14, conc. 0,01 mM): -0.03147
Δ F/F ([2]; Mock, sheet TAS2R14, conc. 0,00001 mM): -0.004277
Δ F/F ([2]; Mock, sheet TAS2R14, conc. 0,00003 mM): -0.0006944
Δ F/F ([2]; Mock, sheet TAS2R14, conc. 0,0001 mM): -0.01329
Δ F/F ([2]; Mock, sheet TAS2R14, conc. 0,0003 mM): -0.01832
Δ F/F ([2]; Mock, sheet TAS2R14, conc. 0,001 mM): -0.01976
Δ F/F ([2]; Mock, sheet TAS2R14, conc. 0,003 mM): -0.0246
Δ F/F ([2]; Mock, sheet TAS2R46, conc. 0,01 mM): -0.02971
Δ F/F ([2]; Mock, sheet TAS2R46, conc. 0,1 mM): -0.009753
Δ F/F ([2]; Mock, sheet TAS2R46, conc. 0,03 mM): -0.03052
Δ F/F ([2]; Mock, sheet TAS2R46, conc. 0,0001 mM): -0.0128
Δ F/F ([2]; Mock, sheet TAS2R46, conc. 0,0003 mM): -0.01683
Δ F/F ([2]; Mock, sheet TAS2R46, conc. 0,001 mM): -0.02076
Δ F/F ([2]; Mock, sheet TAS2R46, conc. 0,003 mM): -0.0306
Δ F/F ([2]; Mock, sheet Tas2r108, conc. 0,01 mM): -0.02695
Δ F/F ([2]; Mock, sheet Tas2r108, conc. 0,1 mM): -0.01465
Δ F/F ([2]; Mock, sheet Tas2r108, conc. 0,03 mM): -0.03132
Δ F/F ([2]; Mock, sheet Tas2r108, conc. 0,00001 mM): -0.01948
Δ F/F ([2]; Mock, sheet Tas2r108, conc. 0,00003 mM): -0.01658
Δ F/F ([2]; Mock, sheet Tas2r108, conc. 0,0001 mM): -0.01596
Δ F/F ([2]; Mock, sheet Tas2r108, conc. 0,0003 mM): -0.01689
Δ F/F ([2]; Mock, sheet Tas2r108, conc. 0,001 mM): -0.02887
Δ F/F ([2]; Mock, sheet Tas2r108, conc. 0,003 mM): -0.03792
Δ F/F [2, 9]: 0.0009651
Δ F/F [2, 10]: -0.0002852
Δ F/F ([2]; conc. 0,000001 mM, Mock (sheet TAS2R1)): 0.0003466
Δ F/F ([2]; conc. 0,000003 mM, Mock (sheet TAS2R1)): 0.0002774
Δ F/F ([2]; conc. 0,00001 mM, Mock (sheet TAS2R1)): -0.0001438
Δ F/F ([2]; conc. 0,00003 mM, Mock (sheet TAS2R1)): 0.0007699
Δ F/F [2, 11]: -0.00173
Δ F/F [2, 12]: 0.00111
Δ F/F [2, 13]: 0.001414
Δ F/F [2, 14]: -0.000959

C[C@H](CCC(=O)O)[C@H]1CC[C@H]2[C@@H]3[C@@H](O)C[C@@H]4C[C@H](O)CC[C@]4(C)[C@H]3CC[C@]12C [Ursodeoxycholic Acid, ursodeoxycholic acid]
Δ F/F ([2]; Mock (sheet Tas2r123), conc. 0,01 mM): -0.001066
Δ F/F ([2]; Mock (sheet Tas2r123), conc. 0,03 mM): -0.001504
Δ F/F ([2]; Mock (sheet Tas2r123), conc. 0,0001 mM): -0.001573
Δ F/F ([2]; Mock (sheet Tas2r123), conc. 0,0003 mM): -0.001292
Δ F/F ([2]; Mock (sheet Tas2r123), conc. 0,001 mM): -0.005211
Δ F/F ([2]; Mock (sheet Tas2r123), conc. 0,003 mM): -0.001793
Δ F/F [2, 3]: -0.0004613
Δ F/F [2, 4]: -0.0005491
Δ F/F [2, 5]: -0.0004806
Δ F/F [2, 6]: -0.001738
Δ F/F [2, 7]: 0.0005593
Δ F/F [2, 8]: -0.001147
Δ F/F ([2]; Mock, sheet TAS2R4, conc. 0,003 mM): -0.0007234
Δ F/F [2, 9]: 0.000483
Δ F/F [2, 10]: -0.001233
Δ F/F [2, 11]: 0.0008084
Δ F/F [2, 12]: -0.0004379
Δ F/F [2, 13]: -0.001051
Δ F/F [2, 14]: -0.001084
